Data on 31 molecules can be found in patent US8779142B2, “Azabicyclo compound and salt thereof” (Taiho Pharmaceutical Co., Ltd., priority 2009, dated 2014).

pIC50: −log10 of the molar value. Like-named read-outs stand apart in the source and are kept apart here.

The subject of experiment [1] is SK-BR-3 cells. Kind of experiment: Measurement of cell growth inhibition (crystal violet staining method). The format is cell-based.
Experiment [2] concerns the target human HSP90 alpha protein (HSP90 N-terminal protein, amino acids 2-236) (Homo sapiens (Human), UniProt P07900). The experiment in a line: Measurement of HSP90-binding activity (AlphaScreen competitive assay, biotin-labeled geldanamycin). The settings on record: read-out: HSP-binding activity IC50. (In general: In Alpha technology, singlet oxygen from a donor bead excites a nearby acceptor bead.)

Setting [3] is: Homo sapiens, breast cancer SK-BR-3 cells, 72 hr culture with test substance.
Where [4] appears, read: concentration inhibiting binding of biotin-labeled geldanamycin (40 nM) to purified HSP90 to 50% of control.

As to “2-(4-Hydroxycyclohexylamino)-4-{3-methyl-4-(4-(pyridin-3-yl)-1H-imidazol-1-yl)-1H-pyrazolo[2,3-b]pyridin-1-yl}benzamide [Example 98]”, the pIC50 in experiment [1] was 8.00; in experiment [2], 7.15. In the same order, the values of “2-(Trans-4-methylsulfonamidocyclohexylamino)-4-{3-methyl-4-(quinolin-3-yl)-1H-pyrrolo[2,3-b]pyridin-1-yl}benzamide [Example 63]” are 6.77 and 6.33.

As for “4-{4-(4-(1-(Hydroxyethyl)-1H-pyrazol-4-yl)-1H-imidazol-1-yl)-3-isopropyl-1H-pyrazolo[3,4-b]pyridin-1-yl}-2-(isopropyl)benzamide [Example 148]”, the pIC50 is 6.62 in experiment [1] and 6.40 in experiment [2]. Turning to `Cc1cn(-c2ccc(C(N)=O)c(N[C@@H]3CCCC[C@H]3N)c2)c2nccc(-c3cnc4ccccc4c3)c12` (relative stereo) [Example 64, 2-(Trans-2-aminocyclohexylamino)-4-{3-methyl-4-(quinolin-3-yl)-1H-pyrrolo[2,3-b]pyridin-1-yl}benzamide], the pIC50 in experiment [1] (setting [3]) is 6.23; in experiment [2] (setting [4]) it was 6.38.

In the case of `COc1ccc2ccn(-c3ccc(C(N)=O)c(NC4CCC(O)CC4)c3)c2c1` (stereo not drawn) [Comparative Example 1, reference compound], the pIC50 was less than 5.00 in experiment [1] (setting [3]) and less than 4.00 in experiment [2] (setting [4]).

As to `COc1cccc2c1ccn2-c1ccc(C(N)=O)c(NC2CCC(O)CC2)c1` (stereo not drawn) [Comparative Example 2, reference compound], the pIC50 in experiment [1] (setting [3]) was less than 5.00; in experiment [2] (setting [4]), less than 4.00. For `COc1cc2ccn(-c3ccc(C#N)c(Nc4ccccc4)c3)c2cc1OC` [Comparative Example 3, reference compound], the pIC50 in experiment [1] (setting [3]) is less than 5.00. `COc1cc2ccn(-c3ccc(C(N)=O)c(Nc4ccccc4)c3)c2cc1OC` [Comparative Example 4, reference compound]: the pIC50 in experiment [1] (Homo sapiens, SK-BR-3, 72 h) is less than 5.00. Same read-out and setting: as for `COc1ccc2c(c1)cc(C)n2-c1ccc(C(N)=O)c(Nc2ccccc2)c1` [Comparative Example 5, reference compound], the figure is less than 5.00.

With `NC(=O)c1ccc(-n2ccc3ccccc32)c(Cl)c1` [Comparative Example 6, reference compound], the pIC50 in experiment [1] (setting [3]) is less than 5.00; in experiment [2] (setting [4]), less than 4.00.

Consider `NC(=O)c1ccc(-n2nc(C(F)(F)F)c3c(-c4cnc5ccccc5c4)ccnc32)cc1N[C@H]1CC[C@H](O)CC1` [Example 1, 2-(Trans-4-hydroxycyclohexylamino)-4-{4-(quinolin-3-yl)-3-(trifluoromethyl)-1H-pyrazolo[3,4-b]pyridin-1-yl}benzamide], for which the pIC50 in experiment [1] (setting [3]) was 7.70; in experiment [2] (setting [4]) it was 6.92. For `Cc1nn(-c2ccc(C(N)=O)c(N[C@H]3CC[C@H](O)CC3)c2)c2nccc(-c3cnc4ccccc4c3)c12` [Example 2, 2-(Trans-4-hydroxycyclohexylamino)-4-{4-(quinolin-3-yl)-3-methyl-1H-pyrazolo[3,4-b]pyridin-1-yl}benzamide], in that order: 7.52 and 6.89.

For `CCc1nn(-c2ccc(C(N)=O)c(N[C@H]3CC[C@H](O)CC3)c2)c2nccc(-c3cnc4ccccc4c3)c12` [Example 3, 2-(Trans-4-hydroxycyclohexylamino)-4-{4-(quinolin-3-yl)-3-ethyl-1H-pyrazolo[3,4-b]pyridin-1-yl}benzamide], the pIC50 was 7.70 in experiment [1] (setting [3]) and 6.77 in experiment [2] (setting [4]).

With `CC(C)c1nn(-c2ccc(C(N)=O)c(N[C@H]3CC[C@H](O)CC3)c2)c2ccnc(-c3cnc4ccccc4c3)c12` [Example 4, 2-(Trans-4-hydroxycyclohexylamino)-4-{3-isopropyl-4-(quinolin-3-yl)-1H-pyrazolo[4,3-c]pyridin-1-yl}benzamide], the negative logarithm of the IC50 (pIC50) in experiment [1] (Homo sapiens, SK-BR-3, 72 h) is 6.09; in experiment [2], 5.80. For `CC(C)c1nn(-c2ccc(C(N)=O)c(N[C@H]3CC[C@H](O)CC3)c2)c2cncc(-c3cnc4ccccc4c3)c12` [Example 5, 2-(Trans-4-hydroxycyclohexylamino)-4-{3-isopropyl-4-(quinolin-3-yl)-1H-pyrazolo[3,4-c]pyridin-1-yl}benzamide], in that order: 6.96 and 6.80.

For the molecule `CC(C)c1nn(-c2ccc(C(N)=O)c(N[C@H]3CC[C@H](O)CC3)c2)c2nccc(-c3cnc4ccccc4c3)c12` [Example 6, 2-(Trans-4-hydroxycyclohexylamino)-4-{3-isopropyl-4-(quinolin-3-yl)-1H-pyrazolo[3,4-b]pyridin-1-yl}benzamide], the pIC50 in experiment [1] (setting [3]) was 7.52. With `CC(C)c1nn(-c2ccc(C(N)=O)c(N[C@H]3CC[C@H](O)CC3)c2)c2nccc(-c3cccnc3)c12` [Example 7, 2-(Trans-4-hydroxycyclohexylamino)-4-{3-isopropyl-4-(pyridin-3-yl)-1H-pyrazolo[3,4-b]pyridin-1-yl}benzamide], the values for the pIC50 in experiment [1] (setting [3]) and in experiment [2] (setting [4]) were 6.64 and 6.47, respectively. For `COc1cncc(-c2ccnc3c2c(C(C)C)nn3-c2ccc(C(N)=O)c(N[C@H]3CC[C@H](O)CC3)c2)c1` [Example 11, 2-(Trans-4-hydroxycyclohexylamino)-4-{3-isopropyl-4-(5-methoxypyridin-3-yl)-1H-pyrazolo[3,4-b]pyridin-1-yl}benzamide], in that order: 6.80 and 6.26. Turning to `CC(C)c1nn(-c2ccc(C(N)=O)c(N[C@H]3CC[C@H](O)CC3)c2)c2nccc(-c3cnc4[nH]ccc4c3)c12` [Example 13, 2-(Trans-4-hydroxycyclohexylamino)-4-{3-isopropyl-4-(1H-pyrrolo[2,3-b]pyridin-5-yl)-1H-pyrazolo[3,4-b]pyridin-1-yl}benzamide], the pIC50 was 6.82 in experiment [1] (setting [3]) and 6.37 in experiment [2] (setting [4]). For `CC(C)c1nn(-c2ccc(C(N)=O)c(N[C@H]3CC[C@H](O)CC3)c2)c2nccc(-c3cnc4c(ccn4C)c3)c12` [Example 14, 2-(Trans-4-hydroxycyclohexylamino)-4-{3-isopropyl-4-(1-methyl-1H-pyrrolo[2,3-b]pyridin-5-yl)-1H-pyrazolo[3,4-b]pyridin-1-yl}benzamide], in that order: 6.74 and 6.16. With `COc1ccc(-c2ccnc3c2c(C(C)C)nn3-c2ccc(C(N)=O)c(N[C@H]3CC[C@H](O)CC3)c2)cn1` [Example 18, 2-(Trans-4-hydroxycyclohexylamino)-4-{3-isopropyl-4-(6-methoxypyridin-3-yl)-1H-pyrazolo[3,4-b]pyridin-1-yl}benzamide], the pIC50 in experiment [1] (setting [3]) was 6.23. For `CC(C)c1nn(-c2ccc(C(N)=O)c(N[C@H]3CC[C@H](O)CC3)c2)c2nccc(-c3cnc4c(c3)CCCC4)c12` [Example 19, 2-(Trans-4-hydroxycyclohexylamino)-4-{3-isopropyl-4-(5,6,7,8-tetrahydroquinolin-3-yl)-1H-pyrazolo[3,4-b]pyridin-1-yl}benzamide], the pIC50 in experiment [1] (setting [3]) is 6.33; in experiment [2] (setting [4]), 5.92. For `CC(C)c1nn(-c2ccc(C(N)=O)c(NCc3ccccc3)c2)c2nccc(-c3cnc4ccccc4c3)c12` [Example 20, 2-(Benzylamino)-4-{3-isopropyl-4-(quinolin-3-yl)-1H-pyrazolo[3,4-b]pyridin-1-yl}benzamide], in that order: 6.17 and 5.52. For `CC(C)c1nn(-c2ccc(C(N)=O)c(NCCN3CCCC3)c2)c2nccc(-c3cnc4ccccc4c3)c12` [Example 22, 4-{3-Isopropyl-4-(quinolin-3-yl)-1H-pyrazolo[3,4-b]pyridin-1-yl}-2-{2-(pyrrolidin-1-yl)ethylamino}benzamide], in that order: 6.80 and 6.74. Consider `CSCCCNc1cc(-n2nc(C(C)C)c3c(-c4cnc5ccccc5c4)ccnc32)ccc1C(N)=O` [Example 23, 4-{3-Isopropyl-4-(quinolin-3-yl)-1H-pyrazolo[3,4-b]pyridin-1-yl}-2-{3-(methylthio)propylamino}benzamide], for which the figures for the pIC50 in experiment [1] (setting [3]) and in experiment [2] (setting [4]) were 6.72 and 6.31, respectively. In the same order, the values of `CC(C)c1nn(-c2ccc(C(N)=O)c(NC3CCN(C)CC3)c2)c2nccc(-c3cnc4ccccc4c3)c12` [Example 24, 4-{3-Isopropyl-4-(quinolin-3-yl)-1H-pyrazolo[3,4-b]pyridin-1-yl}-2-(1-methylpiperidin-4-ylamino)benzamide] are 7.52 and 6.64.

In the case of `CC(C)c1nn(-c2ccc(C(N)=O)c(NCC(C)(C)C)c2)c2nccc(-c3cnc4ccccc4c3)c12` [Example 25, 4-{3-Isopropyl-4-(quinolin-3-yl)-1H-pyrazolo[3,4-b]pyridin-1-yl}-2-(neopentylamino)benzamide], the pIC50 in experiment [1] (setting [3]) was 7.15; in experiment [2] (setting [4]), 5.90. For `CC(C)c1nn(-c2ccc(C(N)=O)c(NCCN(C)C)c2)c2nccc(-c3cnc4ccccc4c3)c12` [Example 27, 2-{2-(Dimethylamino)ethylamino}-4-{3-isopropyl-4-(quinolin-3-yl)-1H-pyrazolo[3,4-b]pyridin-1-yl}benzamide], in that order: 6.89 and 6.62.

`Cc1cn(-c2ccc(C(N)=O)c(N[C@H]3CC[C@H](N)CC3)c2)c2nccc(-c3cnc4ccccc4c3)c12` [Example 61, 2-(Trans-4-aminocyclohexylamino)-4-{3-methyl-4-(quinolin-3-yl)-1H-pyrrolo[2,3-b]pyridin-1-yl}benzamide] gave a pIC50 in experiment [1] (setting [3]) of 6.44. As for `Cc1cn(-c2ccc(C(N)=O)c(S[C@H]3CC[C@H](O)CC3)c2)c2nccc(-c3cnc4ccccc4c3)c12` [Example 67, 2-(Trans-4-hydroxycyclohexylthio)-4-{3-methyl-4-(quinolin-3-yl)-1H-pyrrolo[2,3-b]pyridin-1-yl}benzamide], in experiment [1] (setting [3]), the pIC50 was 6.29.

In turn, `COc1cc(C(N)=O)ccc1-n1nc(C(C)C)c2c(-n3cnc(-c4cnn(C)c4)c3)ccnc21` [Example 128, 4-{3-Isopropyl-4-(4-(1-methyl-1H-pyrazol-4-yl)-1H-imidazol-1-yl)-1H-pyrazolo[3,4-b]pyridin-1-yl}-3-methoxybenzamide] showed a pIC50 in experiment [1] (setting [3]) of 6.82.

As a reminder, the pIC50 is the IC50 on a negative log10 scale, so that one unit is a factor of ten.
